From the supplement of paper PMC10307832

Key:
Assay in all cases: relative viability (nuclei count vs DMSO), 5 days (fraction); higher = more cells survive
NCI-H520 = tested on: NCI-H520
Method in brief: (§1)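 Each reported value is a median over duplicate plates. It expresses relative viability: treated-well nuclei count divided by vehicle-well nuclei count. Lung cancer cell lines in 1536-well plates were dosed by pin tool a day after seeding, alone with one drug or with a fixed anchor-drug dose plus five library-drug doses (not always all listed) in √10 steps, and nuclei were counted after 5 days.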

NCI-H1975 = tested on: NCI-H1975
Method in brief: as §1

NCI-H2347 = tested on: NCI-H2347
Method in brief: as §1

EMC-BAC-2 = tested on: EMC-BAC-2
Method in brief: as §1

SW 1573 = tested on: SW 1573
Method in brief: as §1

ABC-1 = tested on: ABC-1
Method in brief: as §1

NCI-H1355 = tested on: NCI-H1355
Method in brief: as §1

NCI-H1793 = tested on: NCI-H1793
Method in brief: as §1

PC-3 [JPC-3] = tested on: PC-3 [JPC-3]
Method in brief: as §1

NCI-H460 = tested on: NCI-H460
Method in brief: as §1

NCI-H2009 = tested on: NCI-H2009
Method in brief: as §1

NCI-H2126 = tested on: NCI-H2126
Method in brief: as §1

NCI-H1944 = tested on: NCI-H1944
Method in brief: as §1

LCLC-97TM1 = tested on: LCLC-97TM1
Method in brief: as §1

NCI-H1993 = tested on: NCI-H1993
Method in brief: as §1

NCI-H441 = tested on: NCI-H441
Method in brief: as §1

SK-LU-1 = tested on: SK-LU-1
Method in brief: as §1

NCI-H1666 = tested on: NCI-H1666
Method in brief: as §1

NCI-H727 = tested on: NCI-H727
Method in brief: as §1

PC-14 = tested on: PC-14
Method in brief: as §1

NCI-H1755 = tested on: NCI-H1755
Method in brief: as §1

NCI-H2170 = tested on: NCI-H2170
Method in brief: as §1

NCI-H647 = tested on: NCI-H647
Method in brief: as §1

SMILES: Cc1cnc(-c2cnc(NCCNc3ccc(C#N)cn3)nc2-c2ccc(Cl)cc2Cl)[nH]1 + O=C(CCCCCCC(=O)Nc1ccccc1)NO [Vorinostat] (partner 1 µM)
- relative viability (NCI-H520; first compound 0.08 µM): 0.814
- relative viability (NCI-H520; first compound 0.253 µM): 0.678
- relative viability (NCI-H520; first compound 0.8 µM): 0.725
- relative viability (NCI-H520; first compound 2.53 µM): 0.772
- relative viability (NCI-H1975; first compound 0.08 µM): 0.783
- relative viability (NCI-H1975; first compound 0.253 µM): 0.699
- relative viability (NCI-H1975; first compound 0.8 µM): 0.732
- relative viability (NCI-H1975; first compound 2.53 µM): 0.614
- relative viability (NCI-H2347; first compound 0.08 µM): 0.56
- relative viability (NCI-H2347; first compound 0.253 µM): 0.568
- relative viability (NCI-H2347; first compound 0.8 µM): 0.604
- relative viability (NCI-H2347; first compound 2.53 µM): 0.597
- relative viability (EMC-BAC-2; first compound 0.08 µM): 0.46
- relative viability (EMC-BAC-2; first compound 0.253 µM): 0.397
- relative viability (EMC-BAC-2; first compound 0.8 µM): 0.373
- relative viability (EMC-BAC-2; first compound 2.53 µM): 0.372
- relative viability (SW 1573; first compound 0.08 µM): 0.849
- relative viability (SW 1573; first compound 0.253 µM): 0.815
- relative viability (SW 1573; first compound 0.8 µM): 0.463
- relative viability (SW 1573; first compound 2.53 µM): 0.224
- relative viability (ABC-1; first compound 0.08 µM): 1.24
- relative viability (ABC-1; first compound 0.253 µM): 0.871
- relative viability (ABC-1; first compound 0.8 µM): 1.06
- relative viability (ABC-1; first compound 2.53 µM): 1.15
- relative viability (NCI-H1355; first compound 0.08 µM): 0.632
- relative viability (NCI-H1355; first compound 0.253 µM): 0.544
- relative viability (NCI-H1355; first compound 0.8 µM): 0.633
- relative viability (NCI-H1355; first compound 2.53 µM): 0.651
- relative viability (NCI-H1793; first compound 0.08 µM): 0.59
- relative viability (NCI-H1793; first compound 0.253 µM): 0.666
- relative viability (NCI-H1793; first compound 0.8 µM): 0.739
- relative viability (NCI-H1793; first compound 2.53 µM): 0.864
- relative viability (PC-3 [JPC-3]; first compound 0.08 µM): 0.811
- relative viability (PC-3 [JPC-3]; first compound 0.253 µM): 0.713
- relative viability (PC-3 [JPC-3]; first compound 0.8 µM): 0.726
- relative viability (PC-3 [JPC-3]; first compound 2.53 µM): 0.838
- relative viability (NCI-H460; first compound 0.08 µM): 0.71
- relative viability (NCI-H460; first compound 0.253 µM): 0.618
- relative viability (NCI-H460; first compound 0.8 µM): 0.625
- relative viability (NCI-H460; first compound 2.53 µM): 0.58
- relative viability (NCI-H2009; first compound 0.08 µM): 0.738
- relative viability (NCI-H2009; first compound 0.253 µM): 0.676
- relative viability (NCI-H2009; first compound 0.8 µM): 0.659
- relative viability (NCI-H2009; first compound 2.53 µM): 0.725
- relative viability (NCI-H2126; first compound 0.08 µM): 0.775
- relative viability (NCI-H2126; first compound 0.253 µM): 0.695
- relative viability (NCI-H2126; first compound 0.8 µM): 0.703
- relative viability (NCI-H2126; first compound 2.53 µM): 0.819
- relative viability (NCI-H1944; first compound 0.08 µM): 0.591
- relative viability (NCI-H1944; first compound 0.8 µM): 0.614
- relative viability (NCI-H1944; first compound 2.53 µM): 0.566
- relative viability (LCLC-97TM1; first compound 0.08 µM): 0.712
- relative viability (LCLC-97TM1; first compound 0.253 µM): 0.462
- relative viability (LCLC-97TM1; first compound 0.8 µM): 0.515
- relative viability (LCLC-97TM1; first compound 2.53 µM): 0.515
- relative viability (NCI-H1993; first compound 0.08 µM): 1.26
- relative viability (NCI-H1993; first compound 0.253 µM): 0.761
- relative viability (NCI-H1993; first compound 0.8 µM): 0.727
- relative viability (NCI-H1993; first compound 2.53 µM): 0.76
- relative viability (NCI-H441; first compound 0.08 µM): 0.823
- relative viability (NCI-H441; first compound 0.8 µM): 0.737
- relative viability (NCI-H441; first compound 2.53 µM): 0.738
- relative viability (SK-LU-1; first compound 0.08 µM): 0.735
- relative viability (SK-LU-1; first compound 0.253 µM): 0.818
- relative viability (SK-LU-1; first compound 0.8 µM): 0.849
- relative viability (SK-LU-1; first compound 2.53 µM): 0.85
- relative viability (NCI-H1666; first compound 0.08 µM): 0.899
- relative viability (NCI-H1666; first compound 0.253 µM): 1.05
- relative viability (NCI-H1666; first compound 0.8 µM): 0.964
- relative viability (NCI-H1666; first compound 2.53 µM): 1.1
- relative viability (NCI-H727; first compound 0.08 µM): 1.18
- relative viability (NCI-H727; first compound 0.253 µM): 0.787
- relative viability (NCI-H727; first compound 0.8 µM): 1.02
- relative viability (NCI-H727; first compound 2.53 µM): 1.23
- relative viability (PC-14; first compound 0.08 µM): 0.851
- relative viability (PC-14; first compound 0.253 µM): 0.603
- relative viability (PC-14; first compound 0.8 µM): 0.727
- relative viability (PC-14; first compound 2.53 µM): 0.587
- relative viability (NCI-H1755; first compound 0.08 µM): 0.826
- relative viability (NCI-H1755; first compound 0.253 µM): 0.684
- relative viability (NCI-H1755; first compound 0.8 µM): 0.745
- relative viability (NCI-H1755; first compound 2.53 µM): 0.823
- relative viability (NCI-H2170; first compound 0.08 µM): 0.837
- relative viability (NCI-H2170; first compound 0.8 µM): 0.734
- relative viability (NCI-H2170; first compound 2.53 µM): 0.714
- relative viability (NCI-H647; first compound 0.08 µM): 0.609
- relative viability (NCI-H647; first compound 0.253 µM): 0.399
- relative viability (NCI-H647; first compound 0.8 µM): 0.743
- relative viability (NCI-H647; first compound 2.53 µM): 0.357
